# Test results as given in article PMC10712105 (Journal of Translational Medicine, 2023).
# Values joined by “and” are separate entries in the source; they are usually repeats but may differ in a detail not shown here. Identical values can stand only once. Counter-ions that a name gives are not always drawn. Like-named read-outs stand apart in the source and are kept apart here.
# Tests used:
# [1] = Water solubility and solution stability; format: physicochemical
# Source text: Following the formation of SPESN38 complexes, the solution was lyophilized to yield yellowish powder.
# cancer cells = tested on: cancer cells; set-up: method as in PMID 11489791, PMID 1651156; details: cited from earlier work
# [2] = set-up: method as in PMID 8289200; details: in the presence of HSA; cited from earlier work
# HSA = details: cited from earlier work
# [3] = tested on: SK-LMS-1 xenograft tumors; format: in vivo, SCID mice; set-up: Estimate of tumor volume difference vs SPESN38-8 / Estimate of tumor volume difference vs Vehicle: unit not given here; details: for Tumor volume, Mean / Tumor volume, Median: in mm³ (unit assumed); for Tumor volume change from Day 0, Mean / Tumor volume change from Day 0, Median: volume minus day 0 volume
# Source text: SK-LMS-1 cell line (HTB-88) was purchased from ATCC. […] Equal number (12) of female and male mice were used in this experiment. […] The intended schedule for drug or vehicle treatment was weekly for 3 doses.
# A mixed linear regression model was made with tumor volume as the outcome on day 2, 6, and 9. The model tested for group differences adjusted for time, day 0 volume, and sex. There was a within animal correlation modeled using a random intercept. […] The black color columns are within group at between days, the red columns are between group at each day.
# SK-LMS-1 = SK-LMS-1 cell line; cited from earlier work
# [4] = Membrane dialysis SN38 release kinetics; format: physicochemical; details: in 7 h; 0.1 M NaHCO3 buffer, pH 8.6
# [5] = tested on: HCT-116 CRC xenograft tumors; assay: HCT-116 model efficacy study; details: for tumor growth inhibition (TGI) on Day 10: IV (irinotecan 50 mg/kg, SPESN38-5 55 mg/kg), vs control group, female SCID mice
# Method: (§1) After growing in Eagle's Minimum Essential, HCT-116 cells were harvested by trypsinization and washed twice with PBS. HCT-116 cells (2 × 10^6 per injection) were suspended in 200 µL of a 1:1 solution of ice-cold PBS and Matrigel (Corning Incorporated, Corning, NY) solution. […] After the tumors grew to 800–1200 mm^3, they were isolated, and approximately 50 mg of non-necrotic tumor masses were subcutaneously implanted into the flank area of individual female SCID mice. […] Other doses at 75 and 50 mg/kg were tried on healthy CD-1 mice. […] Tumor volume (TV) and BW were measured three times per week or daily depending on the condition of the mouse. TV was calculated using the formula: v = 0.5 (L x W^2). Progression at the endpoint was a tumor size with diameter ≥ 20 mm or a moribund condition.
# [6] = Irinotecan IV dose tolerability; format: in vivo, mouse; details: female, mouse, in vivo; SCID mice, via IV
# Method: as §1
# SCID mice and CD-1 mice = assay: Irinotecan IV dose tolerability; format: in vivo, mouse
# Method: as §1
# [7] = set-up: method as in earlier work; details: irinotecan at 200 mg/kg, mice, cited from earlier work
# [8] = cited from earlier work
# [9] = DOX 5 mg/kg qwk x 2, SPESN38-8 IV 33 mg/kg qwk x 3
# [10] = Day 2, mixed linear regression model, Tukey-Kramer pairwise test
# [11] = Day 6, mixed linear regression model, Tukey-Kramer pairwise test
# [12] = IV, DOX 5 mg/kg, SPESN38-8 33 mg/kg, relative to control group
# [13] = mixed linear regression model, Tukey-Kramer pairwise test
smiles,measurement,setting,value
"CCc1c2c(nc3ccc(O)cc13)-c1cc3c(c(=O)n1C2)COC(=O)[C@]3(O)CC [SN38, 7-ethyl-10-hydroxy camptothecin]",water solubility,[1],very low solubility in water
same,times more cytotoxic than irinotecan,cancer cells,100–1000 times
"CC[C@@]1(O)C(=O)OCc2c1cc1n(c2=O)Cc2cc3ccccc3nc2-1 [CPT, Camptothecin]",L form at the equilibrium,[2],< 0.5%
same,fold higher HSA affinity for the C form over the L form,HSA,157 fold
"COc1cccc2c1C(=O)c1c(O)c3c(c(O)c1C2=O)C[C@@](O)(C(=O)CO)C[C@@H]3O[C@H]1C[C@H](N)[C@H](O)[C@H](C)O1 [DOX, doxorubicin]",% Tumor volume change at Day 9,[3]; [9],142% and 142.4%
same,Mean Tumor volume at Day 9,[3]; [9],843.5 mm^3
same,"Tumor weight on ending day, Mean","[3]; DOX Day 9, SPESN38-8 Day 21",0.73 g
same,"Tumor weight on ending day, Median","[3]; DOX Day 9, SPESN38-8 Day 21",0.71 g
same,Initial mean Tumor volume,"[3]; Day 0, DOX 5 mg/kg qwk x 2, SPESN38-8 IV 33 mg/kg qwk x 3",334.2 mm^3
same,"Tumor volume, Mean",[3]; Day 0,334.20
same,"Tumor volume, Median",[3]; Day 0,343.40
same,"Tumor volume, Mean",[3]; Day 2,347.68
same,"Tumor volume, Median",[3]; Day 2,355.78
same,Estimate of tumor volume difference vs SPESN38-8,[3]; [10],42.5383
same,Estimate of tumor volume difference vs Vehicle,[3]; [10],-178.73
same,"Tumor volume change from Day 0, Mean",[3]; Day 2,13.48
same,"Tumor volume change from Day 0, Median",[3]; Day 2,14.71
same,"Tumor volume, Mean",[3]; Day 6,495.42
same,"Tumor volume, Median",[3]; Day 6,464.84
same,Estimate of tumor volume difference vs SPESN38-8,[3]; [11],132.53
same,Estimate of tumor volume difference vs Vehicle,[3]; [11],-258.70
same,"Tumor volume change from Day 0, Mean",[3]; Day 6,161.22
same,"Tumor volume change from Day 0, Median",[3]; Day 6,138.34
same,"Tumor volume, Mean",[3]; Day 9,843.52
same,"Tumor volume, Median",[3]; Day 9,810.34
same,Estimate of tumor volume difference vs SPESN38-8,"[3]; Day 9, mixed linear regression model, Tukey-Kramer pairwise test",538.49
same,"Tumor volume change from Day 0, Mean",[3]; Day 9,509.32
same,"Tumor volume change from Day 0, Median",[3]; Day 9,472.65
same,TGI on Day 6,[3]; [12],27% and 26.9%
same,TGI on Day 9,[3]; [12],25% and 25.3%
same,"Estimate of tumor volume difference within group, Day 2 vs Day 6",[3]; [13],-147.74
same,"Estimate of tumor volume difference within group, Day 2 vs Day 9",[3]; [13],-495.84
same,"Estimate of tumor volume difference within group, Day 6 vs Day 9",[3]; [13],-348.11
same,BW loss after 2 doses,"[3]; mouse, in vivo",> 20%
same,IC50,SK-LMS-1,490 nM
CCc1c2c(nc3ccc(O)cc13)-c1cc3c(c(=O)n1C2)COC(=O)[C@]3(O)CC [SN38 salt],SN38 out of the membrane tubing,[4],> 90%
same,solution stability,[1]; under the same conditions as SPESN38 complexes,neither SN38 salt nor SN38 salt-HSA mixture is stable
CCc1c2c(nc3ccc(OC(=O)N4CCC(N5CCCCC5)CC4)cc13)-c1cc3c(c(=O)n1C2)COC(=O)[C@]3(O)CC [irinotecan],tumor growth inhibition (TGI) on Day 10,[5],82%
same,tumor growth inhibition (TGI) on Day 10,[5]; listed as Irinotecan,82.3%
same,Tumor weight Difference vs SPESN38-5 PO on Day 10,[5]; IV groups on Day 21,-0.6587
same,Tumor weight Difference vs Vehicle on Day 10,[5]; IV groups on Day 21,-0.9605
same,Mean % BW change at ending day,"[5]; normalized BW, ending Day 21, IV qwk x 3 (irinotecan 50 mg/kg, SPESN38-5 55 mg/kg)",90.5%
same,MTD,[6],50 mg/kg
same,Tolerability,"SCID mice and CD-1 mice; 50 mg/kg IV, 2 healthy CD-1 mice",safe
same,Mortality,"SCID mice and CD-1 mice; 75 mg/kg IV, healthy CD-1 mice",died instantly
same,Mortality,"SCID mice and CD-1 mice; 100 mg/kg IV, 2 SCID mice bearing HCT-116",both died immediately
same,AUC0-∞,[7]; moiety Free SN38,"9,940 ng x h/mL"
same,Cmax,[7]; moiety Free SN38,"1,125 ng/mL"
same,Tmax,[7]; moiety Free SN38,31.8 min
same,AUC0-∞,[7]; moiety Irinotecan,"16,348 ng x h/mL"
same,Cmax,[7]; moiety Irinotecan,"6,571 ng/mL"
same,Tmax,[7]; moiety Irinotecan,17.4 min
same,AUC0-∞,[7]; moiety SN38-G,"15,493 ng x h/mL"
same,Cmax,[7]; moiety SN38-G,"2,620 ng/mL"
same,Tmax,[7]; moiety SN38-G,36 min
same,fraction of irinotecan transformed in vivo into SN38,[8]; human setting,2–8%
same,drug excreted as intact irinotecan,[8]; in humans,55%
